The values below come from patent US20050059585A1, “Methionine aminopeptidase-2 inhibitors and methods of use thereof” (Praecis Pharmaceuticals Inc., priority 2000, published 2005).

For orientation: IC50 means the concentration that inhibits the measured activity by half. The term GI50 denotes the concentration that inhibits growth by half.

The test system of assay [1] is bovine aortic endothelial cell. As to the kind of experiment: bovine aortic endothelial cell growth assay (Baec assay). The assay is classed as cell-based. Particulars: Bos taurus, BAEC; read-out: IC50 (pM), Baec Assay. On the procedure: The angiogenesis inhibitor compounds of the invention were tested for their ability to modulate human endothelial cell growth and for their ability to modulate the activity of MetAP2. The MetAP2 enzyme assay was performed essentially as described in Turk, B. et al. (1999) Chem. & Bio. 6: 823-833, the entire contents of which are incorporated herein by reference. The bovine aortic endothelial cell growth assay (Baec assay) was performed essentially as described in Turk, B. et al. (supra), the entire contents of which are incorporated herein by reference.

Another assay relates to Pfeiffer. As to the kind of experiment: Inhibition of GC derived B cell lymphoma lines in culture. The class given is cell-based.
A further assay deals with D10. The description is as above. The class given is cell-based. Particulars: D10, FL.
The next assay deals with H2. The description is as above. The class given is cell-based.
The test system of the next assay is ST486. The assay is described as above. The assay is classed as cell-based.
Another assay deals with SR lymphoma tumor. In words: In vivo efficacy in SR lymphoma cell tumors grown in mice. Here is the method: SR lymphoma tumor cells were injected subcutaneously into SCID/NCr female mice. Tumors were measured using a caliper every 3-4 days beginning on day 12 post-implantation of tumor cells. Animals were weighed routinely on the same days as tumor measurments and monitored for clinical signs of any adverse, drug-related side effects. Treatment with Compound 5 or vehicle began on Day 12 for 5 weeks and ended on Day 44. The endpoints evaluated were optimal percent treated/control (% T/C) and tumor growth delay measured at multiple timepoints during the study.

In the case of `CO[C@@H]1[C@H](OC(=O)N[C@@H](C(N)=O)C(C)C)CC[C@]2(CO2)[C@H]1[C@@]1(C)O[C@@H]1CC=C(C)C` [Example 5, (1-Carbamoyl-2-methyl-propyl)-carbamic acid-(3R, 4S, 5S, 6R )-5-methoxy-4-[(2R, 3R)-2-methyl-3-(3-methyl-but-2-enyl)-oxiranyl]-1-oxa-spiro[2.5]oct-6-yl ester], the IC50 in assay [1] was found to be 46 pM. Further, the “Growth Inhibition Relative to Vehicle Control, Maximum Inhibition” value in the assay with Pfeiffer (DLBCL, 0.01-100 nM, five or six days) was 54%; in the assay on D10 (0.01-100 nM, five or six days) it was 59%; in the assay on H2 (H2, FL, 0.01-100 nM, five or six days), 59%; with ST486 (ST486, BL, 0.01-100 nM, five or six days), 53%. In addition, the GI50 in the assay with Pfeiffer (Homo sapiens, read-out: Growth Inhibition Relative to Vehicle Control, GI50%) was 0.27 nM; in the assay on D10 (B-cell, estimated, read-out: Growth Inhibition Relative to Vehicle Control, GI50%), 0.42 nM; in the assay with H2 (B-cell, read-out: Growth Inhibition Relative to Vehicle Control, GI50%), 0.16 nM; with ST486 (Homo sapiens, ST486, read-out: Growth Inhibition Relative to Vehicle Control, GI50%), 0.22 nM. In addition, the “optimal % T/C” value was determined as 48% with SR lymphoma tumor (oral route, 15 mg/kg); 43% with SR lymphoma tumor (oral route, 30 mg/kg); 70% with SR lymphoma tumor (subcutaneously, 15 mg/kg); 50% with SR lymphoma tumor (subcutaneously, 30 mg/kg). The tumor growth delay was found to be 29% in the assay with SR lymphoma tumor (orally, 15 mg/kg); 28% in the assay with SR lymphoma tumor (orally, 30 mg/kg); 18% in the assay with SR lymphoma tumor (subcutaneous route, 15 mg/kg); 19% in the assay on SR lymphoma tumor (subcutaneous route, 30 mg/kg).
